The values that follow come from ChEMBL document CHEMBL1201862, “PubChem BioAssay data set” (2004).

Among the test systems are EKVX; Malme-3M; U-251; OVCAR-5; RPMI-8226; COLO 205; MOLT-4; NCI-H23; KM12; LOX IMVI; DLD-1; HL-60; UACC-62; HCC 2998; A498; SK-MEL-28; Hs-578T; NCI/ADR-RES; MDA-MB-231; MDA-MB-435.
What all share (assay): DTP human tumour cell line panel, 48 h

SMILES strings stand for the structures.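 In this assay, cells in 96-well plates receive the compound at five concentrations for 48 hours. Endpoints are linearly interpolated between the surrounding concentrations. GI50 = concentration required for 50% inhibition of growth.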 Active and inactive are the calls of the source. Cut-off read from the data, not from the text of the source: active = GI50 up to about 1.1 µM and inactive = higher. Bounds are passed on as bounds.

For the molecule `N#CCc1cccc(CC#N)c1Br`, the GI50 in the assay with EKVX, with Malme-3M, in the assay on U-251, in the assay on OVCAR-5, with RPMI-8226 and in the assay on COLO 205 was > 100 µM (inactive) in each case. Moreover, the GI50 in the assay on MOLT-4, with NCI-H23, in the assay on KM12, in the assay with LOX IMVI, with DLD-1 and with HL-60 was > 100 µM (inactive) throughout. For the same molecule, in the assay with UACC-62, the GI50 is > 100 µM (inactive).

As for `O=C(NC1C2CC3CC(C2)CC1C3)c1ccncn1` (stereo not drawn), the GI50 in the assay on EKVX, in the assay with HCC 2998, in the assay with Malme-3M, with U-251, in the assay on OVCAR-5 and in the assay with COLO 205 was > 100 µM (inactive) each time. Besides, the GI50 in the assay with NCI-H23, in the assay with KM12, with A498, with DLD-1, in the assay with SK-MEL-28 and in the assay on HL-60 was > 100 µM (inactive) in each case. Moreover, the GI50 in the assay with UACC-62 is > 100 µM (inactive).

Turning to `O=C(N/N=C(\C1=Nc2ccc(Cl)cc2NC1O)C(O)/C=C/c1ccccc1)c1ccncc1` (stereo not drawn), the GI50 in the assay on HCC 2998, in the assay on Malme-3M, in the assay with U-251, with OVCAR-5, with RPMI-8226 and in the assay with COLO 205 was > 100 µM (inactive) each time. For the same molecule, the GI50 with MOLT-4, in the assay on NCI-H23, in the assay with KM12, in the assay with LOX IMVI, in the assay on DLD-1 and in the assay with SK-MEL-28 was > 100 µM (inactive) each time. Also, the GI50 with HL-60 and in the assay with UACC-62 was > 100 µM (inactive) in each case.

With `CN(C)CCC(/C=C/c1ccccc1)=N\Nc1ccccc1`, the GI50 in the assay with EKVX was 2.07 µM (inactive); in the assay on Malme-3M it was 3.07 µM (inactive); in the assay with U-251, 1.83 µM (inactive); with OVCAR-5, 1.98 µM (inactive); with RPMI-8226, 0.853 µM (active); in the assay on COLO 205, 1.96 µM (inactive). Moreover, the GI50 in the assay with MOLT-4 was 0.667 µM (active); in the assay on NCI-H23, 3.97 µM (inactive); with KM12 it was 0.847 µM (active); in the assay with LOX IMVI, 0.0493 µM (active); in the assay on A498, 12.5 µM (inactive); with DLD-1, 0.596 µM (active). The GI50 is 1.8 µM (inactive) with SK-MEL-28, 0.564 µM (active) in the assay on HL-60 and 0.617 µM (active) with UACC-62.

Take `CC(=O)Oc1cc(OC(C)=O)c2cc3c(cc2c1OC(C)=O)C(=O)C1(CCCC1)C3=O`: the GI50 in the assay on EKVX is 20 µM (inactive); with HCC 2998, 21.7 µM (inactive); in the assay on Malme-3M it was 17.9 µM (inactive); in the assay on U-251 it was 18.1 µM (inactive); in the assay on RPMI-8226, 2.29 µM (inactive); in the assay with COLO 205 it was 17.4 µM (inactive). For the same molecule, the GI50 is 3.18 µM (inactive) in the assay on MOLT-4; 17.7 µM (inactive) with NCI-H23; 14.3 µM (inactive) in the assay on LOX IMVI; 20 µM (inactive) in the assay on DLD-1; 15.6 µM (inactive) with SK-MEL-28; 20.8 µM (inactive) in the assay on HL-60. Besides, the GI50 with UACC-62 was 15.8 µM (inactive).

On to `Cc1ccc(C)c(N2C/C(=N\NC(=O)CC#N)C(c3nc4ccccc4s3)C(=O)C2=O)c1` (stereo not drawn), for which the GI50 in the assay on EKVX, in the assay on HCC 2998, with Malme-3M, in the assay with U-251, with COLO 205 and in the assay with MOLT-4 was > 100 µM (inactive) throughout. In addition, the GI50 in the assay with NCI-H23, with KM12, in the assay with A498, with DLD-1, in the assay on SK-MEL-28 and in the assay on HL-60 was > 100 µM (inactive) each time. Also, in the assay with UACC-62, the GI50 was > 100 µM (inactive).

On to `COc1cc(C)c2c(c1)CN1CN2Cc2cc(OC)cc(C)c21`, for which the GI50 is 32.7 µM (inactive) with EKVX; 67.9 µM (inactive) in the assay with Malme-3M; 50.6 µM (inactive) in the assay with U-251; 27.9 µM (inactive) with OVCAR-5; 43.8 µM (inactive) with RPMI-8226; 57 µM (inactive) in the assay on COLO 205. Further, the GI50 in the assay on MOLT-4 was 45 µM (inactive); in the assay with NCI-H23, 45.8 µM (inactive); in the assay on KM12, 58.2 µM (inactive); in the assay with LOX IMVI, 66.2 µM (inactive); with DLD-1, 31.4 µM (inactive); with HL-60, 21.4 µM (inactive). In addition, the GI50 in the assay on UACC-62 is 29.9 µM (inactive).

Regarding `O=C(O)CCC(NC(=O)c1ccccc1)C(=O)O` (stereo not drawn), the GI50 with EKVX, with HCC 2998, in the assay with Malme-3M, in the assay on U-251, in the assay on OVCAR-5 and in the assay on RPMI-8226 was > 100 µM (inactive) each time. The GI50 in the assay on COLO 205 is 52.1 µM (inactive); in the assay on MOLT-4 it was > 100 µM (inactive); in the assay with NCI-H23, > 100 µM (inactive); in the assay with KM12, > 100 µM (inactive); with LOX IMVI, > 100 µM (inactive); with A498, > 100 µM (inactive). For the same molecule, the GI50 with DLD-1, in the assay with SK-MEL-28 and with UACC-62 was > 100 µM (inactive) each time.

Turning to `COc1ccc(CC2C3=C(CCCC3)CCN2C)cc1` (stereo not drawn), the GI50 in the assay on Hs-578T is 77.6 µM (inactive); in the assay with EKVX, > 100 µM (inactive); in the assay with HCC 2998 it was 45.4 µM (inactive); in the assay with Malme-3M, > 100 µM (inactive); in the assay with NCI/ADR-RES it was > 100 µM (inactive); in the assay on MDA-MB-231, > 100 µM (inactive). The GI50 with U-251, with OVCAR-5, in the assay with RPMI-8226, in the assay with COLO 205, in the assay with MOLT-4 and with NCI-H23 was > 100 µM (inactive) throughout. Further, the GI50 in the assay with KM12 is > 100 µM (inactive); in the assay with LOX IMVI it was > 100 µM (inactive); in the assay with A498 it was > 100 µM (inactive); in the assay on SK-MEL-28, > 100 µM (inactive); in the assay with MDA-MB-435, > 100 µM (inactive); in the assay on HL-60, 29.4 µM (inactive). Moreover, the GI50 with UACC-62 was 65.6 µM (inactive).

For `COc1ccc(C23c4ccc(OC)cc4CC2(c2ccc([N+](=O)[O-])cc2)Cc2cc(OC)ccc23)cc1` (stereo not drawn), the GI50 in the assay on EKVX was > 15.2 µM (inactive); in the assay on Malme-3M, > 38.2 µM (inactive); in the assay with U-251 it was > 50.1 µM (inactive); in the assay with OVCAR-5, > 25.9 µM (inactive); with RPMI-8226, > 27.4 µM (inactive); with COLO 205, > 36.2 µM (inactive). Also, the GI50 in the assay with MOLT-4 is > 36.2 µM (inactive); with NCI-H23, > 26.4 µM (inactive); with KM12, > 35.8 µM (inactive); in the assay with LOX IMVI, > 21.3 µM (inactive); in the assay with A498 it was > 29.7 µM (inactive); in the assay with DLD-1, > 22.8 µM (inactive). Further, the GI50 in the assay with SK-MEL-28 is > 17.9 µM (inactive); in the assay on HL-60, > 55 µM (inactive); in the assay on UACC-62, > 17.1 µM (inactive).

A word on the GI50: it is the concentration giving 50% growth inhibition.
